Data as given in publication PMC10283009, “Cellular photo(geno)toxicity of gefitinib after biotransformation” (Frontiers in Pharmacology, 2023).
“Also recorded” adds a separate entry of the source. Counter-ions that a name gives are not always drawn. Like-named read-outs stand apart in the source and are kept apart here.

How the values were obtained:
[1] = set-up: method as in PMID 30069771; conditions: standard, in ethanol; ref [26]; cited from earlier work
HaCaT cells [2] = assay: cells; conditions: for Phototoxicity classification according to OECD 432 Guide: PIF <2 no phototoxicity, 2-5 probable phototoxicity, >5 phototoxicity, HaCaT NRU
Description: Chlorpromazine (CPZ) and sodium dodecyl sulfate (SDS) served as the positive phototoxic and negative non-phototoxic controls, respectively. […] Therefore, the phototoxicity behavior of the metabolites was studied in parallel with the parent drug.
Concisely, for each compound, two 96-well plates were seeded at a density of 2.0 × 10^4 cells/well. […] All plates were incubated for 1 h in dark conditions. Then, for each sample, in the presence of ice, one plate was irradiated with a non-cytotoxic dose of 5 J/cm^2 UVA (UVA Light), whereas the other was kept in a dark box (Dark). Next, drug solutions were replaced with fresh DMEM medium, and plates were further incubated overnight. Next day, neutral red solution (50 μg/mL) was added into the wells and incubated for 2 h at 37°C. […] Lastly, the absorbance of the plates was read at 550 nm on a Synergy H1 microplate reader. […] Afterwards, photoirritation factor (PIF) values were calculated using the following equation: PIF=IC50 Dark / IC50 UVA Light

[3] = target: T1, human serum albumin (HSA) (Homo sapiens, UniProt P02768); assay: Photoinduced protein oxidation assay (carbonyl content, DNPH derivatization); conditions: compound 100 µM, HSA 5 mg/mL in PBS, UVA 15 J/cm^2
HaCaT cells [4] = assay: Lactate dehydrogenase release assay (CytoTox-ONE); format: cell-based, human; conditions: after UVA 5 J/cm^2, concentration near the IC50
Description: Lactate Dehydrogenase activity assay was performed according to the manufacturer´s protocol. Briefly, HaCaT cells were seeded in 96-well plates (2 × 10^5 cell/mL) and incubated for 24 h. Then, after replacement of the medium with fresh no-phenol red DMEM, cells were incubated for 1 h with the compounds in two different concentrations representing 100% and 50% of cell viability according to NRU dose-response curves. Next, one plate was irradiated with UVA light (5 J/cm^2) while the other one was kept in dark conditions. Next day, samples were analyzed by CytoTox-ONE™ Homogeneous Membrane Integrity Assay and a lysis solution (9% weight/volume solution of Triton X-100 in water) was used to determine the maximum amount of LDH present. The fluorescence was measured 10 min after the addition of the substrate using Synergy H1 multi-mode microplate reader (excitation at 560 nm and emission at 590 nm). The percent of LDH release was determined following the following equation: % LDH release=Experimental LDH release/Maximum LDH release x 100

[5] = Fluorescence quantum yield of compounds internalized in HaCaT cells; format: physicochemical; conditions: inside HaCaT cells, excitation at 320 nm, anthracene as standard
Description: (§1) Absorption spectra were recorded in a JASCO V-760 spectrophotometer using 10 × 10 mm^2 quartz cuvettes at room temperature. […] Fluorescence spectra (λ exc = 320 nm) were recorded using a Synergy H1 multi-mode microplate reader.
In parallel, fluorescence quantum yield (ΦF) of the internalized compounds were also determined, by comparison with anthracene as standard (Φ F = 0.27 in ethanol). […]

[6] = test system: caspase-3/7 activity in HaCaT cells; assay: Caspase 3/7 activity assay (Apo-ONE); format: cell-based, human; conditions: after UVA 5 J/cm^2, two concentrations up to about the IC50 under UVA
Description: HaCaT cells were seeded in 96-well plates at a concentration of 2 × 10^5 cell/mL. The next day, cells, in fresh DMEM medium without phenol red, were treated with the compounds at two different concentrations representing 100% and 50% of cell viability according to NRU dose-response curves. After 1 h incubation at 37°C, one plate was irradiated with UVA light (5 J/cm^2) and the other one was kept in dark conditions. Later, plates were incubated for another 24 h at 37°C with fresh DMEM medium. Then, samples were analyzed by the Apo-ONE Homogeneous Caspase-3/7 assay according to the manufacturer’s instructions. Immediately after, the fluorescence was monitored at 0 h and 4 h after the addition of the substrate using Synergy H1 multi-mode microplate reader (excitation at 499 nm and emission at 521 nm). The data was subjected to statistical analysis using the Two-way ANOVA (Analysis of Variance).

[7] = Fluorescence emission spectra in different media; format: physicochemical; set-up: unit not given here; conditions: excitation at 320 nm
Description: as §1

[8] = Photosensitized lipid peroxidation (TBARS assay); conditions: compound 100 µM, linoleic acid 1 mM in PBS, UVA 15 J/cm^2 vs dark
HaCaT cells [9] = assay: Alkaline comet assay (nuclear DNA damage and repair); format: cell-based; conditions: 100 µM
Description: The comet assay (single-cell gel electrophoresis) was performed as already detailed in [Garcia-Lainez et al. (2018)] in order to detect both single and double strand breaks and alkaline labile sites on nuclear DNA. […] The reference photogenotoxic control of this assay was CPZ (10 μM). Afterwards, one plate was irradiated under 2 J/cm^2 UVA light dose (4 J/cm^2 for DMT-GFT and DMOR-GFT) while the other one was kept in darkness as the negative control. Later, both irradiated and non-irradiated cells were detached from the plates and 100 µL of cell suspension was mixed with 100 µL 1% low melting point agarose solution and loaded onto FLARE® slides. Then, slides were incubated on ice to allow drop jellification. Finally, slides were embedded in a box with lysis buffer to initiate the lysis of cells and incubated overnight at 4°C. Next day, slides were placed in electrophoresis tank filled with 1 L of cold alkaline electrophoresis buffer (0.2 M NaOH, 1 mM EDTA in distilled water and pH ≥ 13). The electrophoresis was run at 21 V (1 V/cm) for 30 min and kept at 4°C. Then, slides were washed twice with MilliQ water and DNA fixation accomplished by a serial dehydration with 70% ethanol and 100% ethanol solutions during 5 min and followed by drying for 2 h at 37°C. Nuclear DNA was stained with a SYBR Gold® bath (1:10,000 in Tris-EDTA buffer) for 30 min at 4°C and slides were kept in darkness until its visualization. Comets (nucleoids and tails) were visualized using a fluorescence microscope (Leica DMI 4000B). DNA damage was quantified by counting and analyzing at least 100 DNA comets. Finally, total comet score (TCS) was obtained with the classification of six DNA damage types ([Møller, 2006]) applying the formula: Cl. 0×0+Cl. 1×1+Cl. 2×2+Cl. 3×3+[Cl. 4×4+Cl. 5×5+Cl. 6×6]/6
Where Cl. is the class of DNA damage according to the visual scoring.
The results are expressed in 1–100 arbitrary units, where class 0 comets are comets with no DNA damage while class 6 comets represent comets with maximum DNA damage. Two-way ANOVA (Analysis of Variance) method was used for the statistical analysis of the data.

[10] = target: T1, human serum albumin (HSA); set-up: purchased Sigma-Aldrich (Madrid, Spain); method as in Tamarit et al., 2021; conditions: GFT 100 µM, HSA 5 mg/mL in PBS, UVA 15 J/cm^2; carbonyl content value of GFT taken from the literature; ref Tamarit et al., 2021; cited from earlier work
[11] = Singlet oxygen production by time-resolved NIR emission at 1,270 nm; format: physicochemical
[12] = Triplet excited-state quenching by DMBA (laser flash photolysis); format: physicochemical; conditions: deaerated acetonitrile, 355 nm laser excitation, DMBA 0.1-10 mM
Description: A pulsed Nd:YAG L52137 V LOTIS TII laser (Sp Lotis Tii, Minsk, Belarus) was used for the excitation at 355 nm. The single pulses were ∼10 ns of duration, and the energy was ∼12 mJ/pulse. Laser flash photolysis (LFP) equipment consisted of a pulsed laser, a 77250 Oriel monochromator, and an oscilloscope DP04054 Tektronix. The output signal from the oscilloscope was transferred to a personal computer for processing. The DMOR-GFT metabolite was dissolved in acetonitrile up to an absorbance of 0.3 at 355 nm. Solutions were deaerated by bubbling nitrogen through the solution during 15 min. The rate constant of triplet excited-state quenching by 1,4-dihydro-1,2-dimethylbenzoic acid (DMBA) was determined using the Stern–Volmer Equation: 1/τ=1/τq+kq DMBA
Where τ and τ q are the lifetime of transient species in the presence and absence of DMBA, respectively. Concentrations between 0.1 and 10 mM were used for DMBA. This compound was prepared through Birch reduction following standard procedures ([Andreu et al., 2011]).

[13] = Homo sapiens, HaCaT, 1 h, read-out: IC50 dark
[14] = Homo sapiens, HaCaT, light or radiation study, 1 h, read-out: IC50 UVA light
[15] = PIF = IC50 Dark / IC50 UVA Light, HaCaT, UVA 5 J/cm^2
[16] = in presence of calf thymus DNA (ctDNA)
[17] = in presence of methyl linoleate (ML)

T1 sequence (P02768 25-609): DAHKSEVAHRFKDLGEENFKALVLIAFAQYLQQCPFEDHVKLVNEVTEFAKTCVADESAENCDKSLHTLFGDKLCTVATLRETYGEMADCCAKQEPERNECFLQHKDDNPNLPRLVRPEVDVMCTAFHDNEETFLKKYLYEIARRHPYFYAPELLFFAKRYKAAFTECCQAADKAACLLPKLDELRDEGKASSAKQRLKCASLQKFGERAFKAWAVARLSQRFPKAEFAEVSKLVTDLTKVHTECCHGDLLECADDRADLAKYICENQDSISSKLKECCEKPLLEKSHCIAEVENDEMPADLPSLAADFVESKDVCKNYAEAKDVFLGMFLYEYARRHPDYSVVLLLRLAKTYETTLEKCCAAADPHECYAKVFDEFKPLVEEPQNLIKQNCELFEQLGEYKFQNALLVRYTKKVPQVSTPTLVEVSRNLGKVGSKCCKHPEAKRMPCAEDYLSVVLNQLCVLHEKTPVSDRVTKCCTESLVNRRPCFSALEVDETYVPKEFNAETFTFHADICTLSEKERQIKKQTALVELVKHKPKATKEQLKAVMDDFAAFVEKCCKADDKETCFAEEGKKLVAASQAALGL

## c1ccc2cc3ccccc3cc2c1 [anthracene]
[1]
  Fluorescence quantum yield (ΦF): 0.27

## CN(C)CCCN1c2ccccc2Sc2ccc(Cl)cc21 [CPZ, Chlorpromazine hydrochloride, reference compound]
HaCaT cells [2]; [13]
  IC50: 80 ± 17 µM
HaCaT cells [2]; [14]
  IC50: 4 ± 0.9 µM
HaCaT cells [2]; [15]
  Photoirritant factor (PIF): 20

## CCCCCCCCCCCCOS(=O)(=O)[O-].[Na+] [SDS, sodium dodecyl sulfate, reference compound]
HaCaT cells [2]
  Photoirritant factor (PIF): 1
HaCaT cells [2]; read-out: IC50 UVA light, HaCaT, neutral red uptake, UVA 5 J/cm^2, 1 h incubation with compound
  IC50: 136 ± 23 µM
HaCaT cells [2]; read-out: IC50 dark, HaCaT, neutral red uptake, kept in dark, 1 h incubation with compound
  IC50: 133 ± 31 µM

## Oc1cc2ncnc(Nc3ccc(F)c(Cl)c3)c2cc1OCCCN1CCOCC1 [DMT-GFT, O-Demethyl gefitinib]
[3]
  Protein photooxidation (carbonyl content of HSA): did not exhibit any lipid or protein oxidative damage
HaCaT cells [4]
  LDH release: did not show any effect on the LDH release
[5]
  Fluorescence quantum yield (ΦF): 0.04
[6]
  Caspase-3/7 activity (relative change): caspase-3/7 activity was similar between the concentration of 2.5 µM and the concentration corresponding to IC50
HaCaT cells [2]; [13]
  IC50: 34 ± 3 µM
HaCaT cells [2]; [14]
  IC50: 5 ± 0.1 µM
HaCaT cells [2]
  Phototoxicity classification according to OECD 432 Guide: can still be considered phototoxic
HaCaT cells [2]; [15]
  Photoirritant factor (PIF): 7
[7]; [16]
  Emission (λmax): 450
[7]; [17]
  Emission (λmax): 384
[8]
  Photosensitized lipid peroxidation (TBARS content): neither GFT nor DMT-GFT showed detectable changes
HaCaT cells [9]; UVA light 10 min (4 J/cm^2)
  Percentage of DNA damage (comet assay): around 54%

## COc1cc2ncnc(Nc3ccc(F)c(Cl)c3)c2cc1OCCCN1CCOCC1 [GFT, Gefitinib hydrochloride, reference compound]
HaCaT cells [4]
  LDH release: small but significant percent of LDH-release
[5]
  Fluorescence quantum yield (ΦF): 0.07
[10]
  Protein photooxidation (carbonyl content of HSA): significant oxidative effect towards HSA
HaCaT cells [9]; UVA light 5 min (2 J/cm^2)
  Percentage of DNA damage (comet assay): around 72%
[11]
  Singlet oxygen quantum yield (Φ Δ): ≤ 0.1

## COc1cc2ncnc(Nc3ccc(O)c(Cl)c3)c2cc1OCCCN1CCOCC1 [DF-GFT, 4-Defluoro-4-hydroxy gefitinib]
HaCaT cells [2]; [13]
  IC50: 1020 µM
HaCaT cells [2]; [14]
  IC50: 1100 µM
HaCaT cells [2]
  Phototoxicity classification according to OECD 432 Guide: non-phototoxic; also recorded: negligible phototoxic activity
HaCaT cells [2]; [15]
  Photoirritant factor (PIF): ~1

## COc1cc2ncnc(Nc3ccc(F)c(Cl)c3)c2cc1O [DMOR-GFT, O-Demorpholinopropyl gefitinib]
[3]
  Protein photooxidation (carbonyl content of HSA): significant oxidative effect towards HSA
[12]
  Rate constant (kq) of triplet excited state quenching by DMBA: 1.96 M^−1·s^−1 × 10^9 M^−1·s^−1
[5]
  Fluorescence quantum yield (ΦF): 0.1
[6]
  Caspase-3/7 activity (relative change): concentration dependent activation of caspase-3/7
HaCaT cells [2]; [13]
  IC50: 144 ± 6 µM
HaCaT cells [2]; [14]
  IC50: 3 ± 0.6 µM
HaCaT cells [2]; [15]
  Photoirritant factor (PIF): 48
[7]; in presence of HSA
  Emission (λmax): 432
[7]; [16]
  Emission (λmax): 448
[7]; [17]
  Emission (λmax): 384
[8]
  Photosensitized lipid peroxidation (TBARS content): remarkable enhancement in photosensitized lipid peroxidation comparable to the reference
HaCaT cells [9]; UVA light 5 min (2 J/cm^2)
  Percentage of DNA damage (comet assay): did not promote DNA damage
HaCaT cells [9]; UVA light 10 min (4 J/cm^2)
  Percentage of DNA damage (comet assay): around 45%
[11]
  Singlet oxygen quantum yield (Φ Δ): ≤ 0.1
